Target: T1, purified human HDAC6 (Homo sapiens, UniProt Q9UBN7)
T1 construct: purchased BPS Bioscience 5006
T1 sequence (Q9UBN7 1-1215): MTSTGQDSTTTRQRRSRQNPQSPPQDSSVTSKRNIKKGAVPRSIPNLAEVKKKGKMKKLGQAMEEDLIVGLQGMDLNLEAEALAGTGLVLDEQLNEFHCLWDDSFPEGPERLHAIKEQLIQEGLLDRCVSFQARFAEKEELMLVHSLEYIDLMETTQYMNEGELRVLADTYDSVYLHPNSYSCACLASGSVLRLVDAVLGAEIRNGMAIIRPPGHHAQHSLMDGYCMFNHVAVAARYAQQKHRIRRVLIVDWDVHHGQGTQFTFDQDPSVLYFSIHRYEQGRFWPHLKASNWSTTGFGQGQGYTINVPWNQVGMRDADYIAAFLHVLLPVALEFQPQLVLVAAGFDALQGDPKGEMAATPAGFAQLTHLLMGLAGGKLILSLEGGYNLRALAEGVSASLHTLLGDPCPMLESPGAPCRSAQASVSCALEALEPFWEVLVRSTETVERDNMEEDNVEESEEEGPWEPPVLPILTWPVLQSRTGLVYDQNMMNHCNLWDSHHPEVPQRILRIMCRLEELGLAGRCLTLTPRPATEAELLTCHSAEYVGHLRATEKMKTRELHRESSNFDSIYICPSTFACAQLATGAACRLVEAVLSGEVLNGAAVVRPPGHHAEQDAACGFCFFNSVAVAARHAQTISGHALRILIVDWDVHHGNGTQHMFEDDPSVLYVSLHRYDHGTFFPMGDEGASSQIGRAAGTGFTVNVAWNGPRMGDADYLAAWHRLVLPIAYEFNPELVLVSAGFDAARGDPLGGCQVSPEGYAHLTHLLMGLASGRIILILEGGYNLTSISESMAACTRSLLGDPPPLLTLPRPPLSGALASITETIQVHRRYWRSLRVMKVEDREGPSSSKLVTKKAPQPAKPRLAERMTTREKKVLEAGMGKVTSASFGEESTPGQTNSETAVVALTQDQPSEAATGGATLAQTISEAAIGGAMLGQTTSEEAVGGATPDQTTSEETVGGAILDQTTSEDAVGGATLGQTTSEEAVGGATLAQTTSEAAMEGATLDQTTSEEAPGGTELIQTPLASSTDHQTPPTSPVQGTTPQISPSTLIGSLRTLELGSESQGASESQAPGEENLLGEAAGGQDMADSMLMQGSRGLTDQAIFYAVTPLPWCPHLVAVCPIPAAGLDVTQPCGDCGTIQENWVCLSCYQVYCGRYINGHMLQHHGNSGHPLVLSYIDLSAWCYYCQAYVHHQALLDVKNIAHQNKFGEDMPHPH
Assay: HDAC6 Enzyme Assay
Type: biochemical
Conditions: substrate Ac-Arg-Gly-Lys(Ac)-AMC peptide, 1 hour at 30° C.
Method: To measure the inhibition of HDAC6 activity, purified human HDAC6 (BPS Bioscience; Cat. No. 5006) is incubated with substrate Ac-Arg-Gly-Lys(Ac)-AMC peptide (Bachem Biosciences; Cat. No. I-1925) for 1 hour at 30° C. in the presence of test compounds or vehicle DMSO control. The reaction is stopped with the HDAC inhibitor trichostatin A (Sigma; Cat. No. T8552) and the amount of Arg-Gly-Lys-AMC generated is quantitated by digestion with trypsin (Sigma; Cat. No. T1426) and subsequent measurement of the amount of AMC released using a fluorescent plate reader (Pherastar; BMG Technologies) set at Ex 340 nm and Em 460 nm. Concentration response curves are generated by calculating the fluorescence increase in test compound-treated samples relative to DMSO-treated controls, and enzyme inhibition (IC50) values are determined from those curves.

SMILES	IC50
CC(NC(=O)NC1CCCC1)c1ccc(C(=O)NO)s1 (centres unmarked) [Compound I-1, 5-(1-(3-cyclopentylureido)ethyl)-N-hydroxythiophene-2-carboxamide]	< 100 nM
CC(NC(=O)Nc1ccc(F)cc1)c1ccc(C(=O)NO)s1 (centres unmarked) [Compound I-2, 5-[1-({[(4-fluorophenyl)amino]carbonyl}amino)ethyl]-N-hydroxythiophene-2-carboxamide]	< 100 nM
CC(NC(=O)Nc1cccc(C(F)(F)F)c1)c1ccc(C(=O)NO)s1 (centres unmarked) [Compound I-3, N-hydroxy-5-{1-[({[3-(trifluoromethyl)phenyl]amino}carbonyl)amino]ethyl}thiophene-2-carboxamide]	< 100 nM
CC(NC(=O)Nc1cc(Cl)cc(Cl)c1)c1ccc(C(=O)NO)s1 (centres unmarked) [Compound I-4, 5-[1-({[(3,5-dichlorophenyl)amino]carbonyl}amino)ethyl]-N-hydroxythiophene-2-carboxamide]	100 to 500 nM
CC(NC(=O)Nc1cc(C(F)(F)F)ccc1F)c1ccc(C(=O)NO)s1 (centres unmarked) [Compound I-7, 5-{1-[({[2-fluoro-5-(trifluoromethyl)phenyl]amino}carbonyl)amino]ethyl}-N-hydroxythiophene-2-carboxamide]	< 100 nM
C[C@@H](NC(=O)C12CC3CC(CC(C3)C1)C2)c1ccc(C(=O)NO)s1 [Compound I-11, 5-{(1R)-1-[(1-adamantylcarbonyl)amino]ethyl}-N-hydroxythiophene-2-carboxamide]	> 500 nM
CC(NC(=O)Nc1ccccc1)c1ccc(C(=O)NO)s1 (centres unmarked) [Compound I-12, 5-{1-[(anilinocarbonyl)amino]ethyl}-N-hydroxythiophene-2-carboxamide]	< 100 nM
COc1ccc(C)cc1NC(=O)NC(C)c1ccc(C(=O)NO)s1 (centres unmarked) [Compound I-19, N-hydroxy-5-[1-({[(2-methoxy-5-methylphenyl)amino]carbonyl}amino)ethyl]thiophene-2-carboxamide]	< 100 nM
CC(NC(=O)Nc1ccc(OC(F)(F)F)cc1)c1ccc(C(=O)NO)s1 (centres unmarked) [Compound I-22, N-hydroxy-5-{1-[({[4-(trifluoromethoxy)phenyl]amino}carbonyl)amino]ethyl}thiophene-2-carboxamide]	< 100 nM
CC(NC(=O)Nc1ccccc1-c1ccccc1)c1ccc(C(=O)NO)s1 (centres unmarked) [Compound I-27, 5-(1-{[(biphenyl-2-ylamino)carbonyl]amino}ethyl)-N-hydroxythiophene-2-carboxamide]	100 to 500 nM
C[C@@H](NC(=O)c1cccn1C)c1ccc(C(=O)NO)s1 [Compound I-29, N-((1R)-1-{5-[(hydroxyamino)carbonyl]-2-thienyl}ethyl)-1-methyl-1H-pyrrole-2-carboxamide]	< 100 nM
Cc1c(C(=O)N[C@H](C)c2ccc(C(=O)NO)s2)sc2ccccc12 [Compound I-31, N-((1R)-1-{5-[(hydroxyamino)carbonyl]-2-thienyl}ethyl)-3-methyl-1-benzothiophene-2-carboxamide]	< 100 nM
CC(NC(=O)NC(C)(C)C)c1ccc(C(=O)NO)s1 (centres unmarked) [Compound I-34, 5-(1-{[(tert-butylamino)carbonyl]amino}ethyl)-N-hydroxythiophene-2-carboxamide]	100 to 500 nM

Second part, the compound after the results:

IC50	SMILES
< 100 nM	C[C@@H](NC(=O)c1cc2ccccc2n1C)c1ccc(C(=O)NO)s1 [Compound I-5, N-((1R)-1-{5-[(hydroxyamino)carbonyl]-2-thienyl}ethyl)-1-methyl-1H-indole-2-carboxamide]
> 500 nM	C[C@@H](NC(=O)C(C)(C)C)c1ccc(C(=O)NO)s1 [Compound I-6, 5-{(1R)-1-[(2,2-dimethylpropanoyl)amino]ethyl}-N-hydroxythiophene-2-carboxamide]
100 to 500 nM	C[C@@H](NC(=O)NC(C)(C)C)c1ccc(C(=O)NO)s1 [Compound I-8, 5-((1R)-1-{[(tert-butylamino)carbonyl]amino}ethyl)-N-hydroxythiophene-2-carboxamide]
< 100 nM	COc1ccc(C(=O)N[C@H](C)c2ccc(C(=O)NO)s2)cc1 [Compound I-9, N-hydroxy-5-{(1R)-1-[(4-methoxybenzoyl)amino]ethyl}thiophene-2-carboxamide]
< 100 nM	CC(NC(=O)Nc1ccc(Cl)c(C(F)(F)F)c1)c1ccc(C(=O)NO)s1 (centres unmarked) [Compound I-10, 5-{1-[({[4-chloro-3-(trifluoromethyl)phenyl]amino}carbonyl)amino]ethyl}-N-hydroxythiophene-2-carboxamide]
< 100 nM	Cc1ccc(NC(=O)NC(C)c2ccc(C(=O)NO)s2)c(C)c1 (centres unmarked) [Compound I-13, 5-[1-({[(2,4-dimethylphenyl)amino]carbonyl}amino)ethyl]-N-hydroxythiophene-2-carboxamide]
< 100 nM	CC(NC(=O)Nc1ccc(Oc2ccccc2)cc1)c1ccc(C(=O)NO)s1 (centres unmarked) [Compound I-14, N-hydroxy-5-[1-({[(4-phenoxyphenyl)amino]carbonyl}amino)ethyl]thiophene-2-carboxamide]
< 100 nM	Cc1c(C(=O)N[C@H](C)c2ccc(C(=O)NO)s2)oc2ccccc12 [Compound I-15, N-((1R)-1-{5-[(hydroxyamino)carbonyl]-2-thienyl}ethyl)-3-methyl-1-benzofuran-2-carboxamide]
< 100 nM	C[C@@H](NC(=O)c1cc2ccccc2s1)c1ccc(C(=O)NO)s1 [Compound I-16, N-((1R)-1-{5-[(hydroxyamino)carbonyl]-2-thienyl}ethyl)-1-benzothiophene-2-carboxamide]
< 100 nM	C[C@@H](NC(=O)c1cc(Cl)c(Cl)n1C)c1ccc(C(=O)NO)s1 [Compound I-17, 4,5-dichloro-N-((1R)-1-{5-[(hydroxyamino)carbonyl]-2-thienyl}ethyl)-1-methyl-1H-pyrrole-2-carboxamide]
< 100 nM	CC(NC(=O)NCc1ccccc1)c1ccc(C(=O)NO)s1 (centres unmarked) [Compound I-18, 5-(1-{[(benzylamino)carbonyl]amino}ethyl)-N-hydroxythiophene-2-carboxamide]
100 to 500 nM	CC(NC(=O)Nc1c(F)cccc1F)c1ccc(C(=O)NO)s1 (centres unmarked) [Compound I-20, 5-[1-({[(2,6-difluorophenyl)amino]carbonyl}amino)ethyl]-N-hydroxythiophene-2-carboxamide]
< 100 nM	C[C@H](NC(=O)c1cc2ccccc2s1)c1ccc(C(=O)NO)s1 [Compound I-21, N-((1S)-1-{5-[(hydroxyamino)carbonyl]-2-thienyl}ethyl)-1-benzothiophene-2-carboxamide]
100 to 500 nM	C[C@@H](NS(=O)(=O)c1ccc(C(F)(F)F)cc1)c1ccc(C(=O)NO)s1 [Compound I-23, N-hydroxy-5-[(1R)-1-({[4-(trifluoromethyl)phenyl]sulfonyl}amino)ethyl]thiophene-2-carboxamide]
100 to 500 nM	CC(NC(=O)NC1CCCCC1)c1ccc(C(=O)NO)s1 (centres unmarked) [Compound I-24, 5-(1-{[(cyclohexylamino)carbonyl]amino}ethyl)-N-hydroxythiophene-2-carboxamide]
100 to 500 nM	CC(NC(=O)NC(C)c1ccc(C(=O)NO)s1)c1ccccc1 (centres unmarked) [Compound I-28, N-hydroxy-5-[1-({[(1-phenylethyl)amino]carbonyl}amino)ethyl]thiophene-2-carboxamide]
< 100 nM	Cc1cccc(NC(=O)NC(C)c2ccc(C(=O)NO)s2)c1 (centres unmarked) [Compound I-30, N-hydroxy-5-[1-({[(3-methylphenyl)amino]carbonyl}amino)ethyl]thiophene-2-carboxamide]
100 to 500 nM	Cc1cccc(C)c1NC(=O)NC(C)c1ccc(C(=O)NO)s1 (centres unmarked) [Compound I-32, 5-[1-({[(2,6-dimethylphenyl)amino]carbonyl}amino)ethyl]-N-hydroxythiophene-2-carboxamide]
100 to 500 nM	CC(NS(=O)(=O)c1cn(C)cn1)c1ccc(C(=O)NO)s1 (centres unmarked) [Compound I-33, N-hydroxy-5-(1-{[(1-methyl-1H-imidazol-4-yl)sulfonyl]amino}ethyl)thiophene-2-carboxamide]
